The values that follow are results of earlier work, collected in patent EP0775491A1, “IMMUNOPOTENTIATOR” (TAYCA CORPORATION, priority 1995, dated 1997).

Like-named read-outs stand apart in the source and are kept apart here.

For the data set the following is noted: oral administration to rats.

The LD50 is the dose at which mortality reaches 50%. Take `O=c1[nH]cc(F)c(=O)[nH]1` [Fluorouracil]: the LD50 is on record as 781 mg/kg.

Regarding `O=P1(N(CCCl)CCCl)NCCCO1` (stereo not shown) [Cyclophosphide], the LD50 was 118 mg/kg (female) and 100 mg/kg (male).

As to `COC(COC(N)=O)C1=C(N2CC2)C(=O)C(C)=C(N2CC2)C1=O` (stereo not shown) [Carboquone], the LD50 was 27.3 mg/kg.
